Reference: US9598434B2, “Benzazepine compound” (Astellas Pharma Inc., priority 2010, dated 2017)

Structure (SMILES) | melting point
COCC(C)CN1CCOc2cc3c(cc21)CCNCC3 (stereo not drawn) [Example 318] | 129 to 132 °C
COCCN1CC(C)Oc2cc3c(c(C4CC4)c21)CCNCC3.O=C(O)/C=C/C(=O)O (stereo not drawn) | 102 to 103 °C
O=C(O)CCC(=O)O.O=C(OCCc1ccccc1)N1CCOc2c1cc1c(c2Br)CCNCC1 | 142 to 143 °C
CC(COC(=O)N1CCOc2cc3c(cc21)CCNCC3)c1ccccc1.O=C(O)CCC(=O)O (stereo not drawn) | 177 to 179 °C
O=C(O)C(=O)O.O=C(OCCc1ccccc1)N1CCCc2cc3c(c(Br)c21)CCNCC3 | 176 to 177 °C
CN1CCOc2cc3c(c(-c4cccs4)c21)CCNCC3.O=C(O)/C=C/C(=O)O | 248 to 252 °C
CC(C)CN1CCOc2cc3c(c(C4CC4)c21)CCNCC3 [Example 262] | 160 to 162 °C
COCCN1c2cc3c(cc2OC[C@@H]1C)CCNCC3.O=C(O)/C=C/C(=O)O | 131 to 134 °C
O=C(O)/C=C/C(=O)O.OCCN1CCOc2cc3c(c(C4CC4)c21)CCNCC3 | 146 to 150 °C
COc1cccc(CCOC(=O)N2CCOc3cc4c(cc32)CCNCC4)c1.O=C(O)CCC(=O)O | 134 to 136 °C
CCN1CCOc2cc3c(c(C4CC4)c21)CCNCC3.O=C(O)/C=C/C(=O)O | 174 to 177 °C
COCCN1CCOc2c1cc1c(c2Cl)CCNCC1.O=C(O)CCC(=O)O | 139 to 141 °C
C[C@H](F)CN1CCOc2cc3c(c(C4CC4)c21)CCNCC3.O=C(O)/C=C/C(=O)O | 171 to 173 °C
CN1CCC(C)(C)c2cc3c(cc21)CCNCC3.O=C(O)/C=C/C(=O)O | 197 to 200 °C
COCCN1C(=O)C(C)(C)Oc2cc3c(cc21)CCNCC3.O=C(O)/C=C/C(=O)O | 175 to 176 °C
COCCN1CCOc2c1cc1c(c2Br)CCNCC1 [Example 176] | 107 to 110 °C
CC(C)COC(=O)N1CCCc2cc3c(cc21)CCNCC3.Cl | 202 to 207 °C
CC(C)CN1C(=O)CCc2cc3c(cc21)CCNCC3.O=C(O)CCC(=O)O | 142 to 144 °C
O=C(O)CCC(=O)O.O=C1COc2cc3c(cc2N1Cc1cccc(Cl)c1)CCNCC3 | 192 to 194 °C
Cl.FC(F)(F)CN1CCOc2cc3c(cc21)CCNCC3 | 221 to 222 °C
CCCN1CCOc2cc3c(c(C4CC4)c21)CCNCC3.O=C(O)/C=C/C(=O)O | 138 to 141 °C
O=C(O)CCC(=O)O.c1ccc(CN2CCOc3cc4c(c(C5CC5)c32)CCNCC4)cc1 | 107 to 110 °C

Structure (SMILES) | melting point
FC(F)CN1CCOc2cc3c(c(C4CC4)c21)CCNCC3.O=C(O)/C=C/C(=O)O | 198 to 201 °C
COCC(F)(F)CN1CCOc2cc3c(cc21)CCNCC3.Cl | 172 to 173 °C
COCC(CN1CCOc2cc3c(c(C4CC4)c21)CCNCC3)Oc1ccc(F)cc1F.O=C(O)/C=C/C(=O)O (stereo not drawn) | 150 to 151 °C
O=C(O)CCC(=O)O.O=C(OCCc1ccccc1)N1CCOc2c1cc1c(c2-c2ccccc2)CCNCC1 | 169 to 171 °C
CC1(C)CCNc2cc3c(cc21)CCNCC3 [Example 159] | 288 to 290 °C
COc1ccc(Cl)cc1CN1CCOc2cc3c(c(C4CC4)c21)CCNCC3.O=C(O)/C=C/C(=O)O | 193 to 196 °C
Cl.O=C1CCc2cc3c(cc2N1Cc1ccccc1)CCNCC3 | 177 to 180 °C
CCCN1C(=O)CCc2cc3c(c(C4CC4)c21)CCNCC3.O=C(O)CCC(=O)O | 170 to 171 °C
CCCc1c2c(cc3c1OCCN3C(=O)OCCc1ccccc1)CCNCC2.O=C(O)/C=C/C(=O)O | 134 to 136 °C
CC(Cc1ccccc1)OC(=O)N1CCOc2cc3c(cc21)CCNCC3.O=C(O)CCC(=O)O (stereo not drawn) | 85 to 87 °C
CCc1c2c(cc3c1N(C)CCO3)CCNCC2 [Example 226] | 184 to 185 °C
COc1ccccc1CCOC(=O)N1CCOc2cc3c(cc21)CCNCC3.O=C(O)CCC(=O)O | 158 to 160 °C
COC[C@H](CN1CCOc2cc3c(c(C4CC4)c21)CCNCC3)OC.O=C(O)/C=C/C(=O)O | 150 to 154 °C
Clc1ccccc1CN1CCOc2cc3c(c(C4CC4)c21)CCNCC3.O=C(O)CCC(=O)O | 106 to 109 °C
COCC(F)(F)CN1CCOc2cc3c(c(C4CC4)c21)CCNCC3.O=C(O)/C=C/C(=O)O | 163 to 165 °C
CC1(C)CC(=O)Nc2cc3c(cc21)CCNCC3.Cl | 270 to 272 °C
CCc1c2c(cc3c1N(CCCF)CCO3)CCNCC2 [Example 264] | 153 to 154 °C
COCCN1C(=O)CCc2cc3c(cc21)CCNCC3.O=C(O)/C=C/C(=O)O | 164 to 166 °C
CCOCCN1CCOc2cc3c(c(CC)c21)CCNCC3.O=C(O)/C=C/C(=O)O | 179 to 181 °C
O=C(O)CCC(=O)O.O=C(OCCc1ccc(F)cc1)N1CCOc2cc3c(cc21)CCNCC3 | 179 to 181 °C
O=C(O)CCC(=O)O.O=C(OCCc1ccccc1Cl)N1CCCc2cc3c(cc21)CCNCC3 | 187 to 188 °C
Cc1c2c(cc3c1N(CCCF)CCO3)CCNCC2.O=C(O)/C=C/C(=O)O | 187 to 190 °C

Structure (SMILES) | melting point
O=C(O)CCC(=O)O.O=C(OCCc1cccc(F)c1)N1CCOc2cc3c(cc21)CCNCC3 | 162 to 164 °C
O=C(O)CCC(=O)O.O=C(OCCc1ccccc1Cl)N1CCOc2cc3c(cc21)CCNCC3 | 169 to 170 °C
O=C(O)/C=C/C(=O)O.c1c2c(c(C3CC3)c3c1OCCN3CC1CCOC1)CCNCC2 (stereo not drawn) | 117 to 118 °C
COCCN1CCOc2cc3c(c(C=C(C)C)c21)CCNCC3.O=C(O)/C=C/C(=O)O | 173 to 176 °C
COCCN1c2cc3c(cc2CCC1(C)C)CCNCC3.O=C(O)/C=C/C(=O)O | 156 to 158 °C
FC1(F)Oc2ccc(CN3CCOc4cc5c(c(C6CC6)c43)CCNCC5)cc2O1.O=C(O)/C=C/C(=O)O | 161 to 164 °C
CCOCCN1CCOc2cc3c(c(C)c21)CCNCC3.O=C(O)/C=C/C(=O)O | 152 to 155 °C
c1c2c(c(C3CC3)c3c1OCCN3C[C@H]1CCCO1)CCNCC2 [Example 227] | 156 to 158 °C
CO[C@@H](C)CN1CCOc2cc3c(c(C4CC4)c21)CCNCC3.O=C(O)/C=C/C(=O)O | 135 to 138 °C
FC(F)(F)c1cccc(CN2CCOc3cc4c(cc32)CCNCC4)c1.O=C(O)/C=C/C(=O)O | 141 to 146 °C
COCCCN1C(=O)CCc2cc3c(c(Br)c21)CCNCC3.O=C(O)/C=C/C(=O)O | 153 to 155 °C
CCCC1CN(C)c2cc3c(cc2O1)CCNCC3.O=C(O)/C=C/C(=O)O (stereo not drawn) | 152 to 153 °C
CCCc1c2c(cc3c1N(C)CCO3)CCNCC2 [Example 225] | 151 to 152 °C
COC[C@@H](CN1CCOc2cc3c(c(C4CC4)c21)CCNCC3)OC.O=C(O)/C=C/C(=O)O | 156 to 158 °C
COCCN1CCOc2cc3c(c(-c4ccccc4F)c21)CCNCC3.O=C(O)/C=C/C(=O)O | 179 to 182 °C
Fc1c(Cl)cccc1CN1CCOc2cc3c(c(C4CC4)c21)CCNCC3.O=C(O)/C=C/C(=O)O | 181 to 184 °C
COCC(CN1CCOc2cc3c(c(C4CC4)c21)CCNCC3)Oc1ccccc1F.O=C(O)/C=C/C(=O)O (stereo not drawn) | 132 to 133 °C
COCCN1C(=O)CCc2cc3c(c(Br)c21)CCNCC3.O=C(O)/C=C/C(=O)O | 99 to 104 °C
O=C1CCc2cc3c(c(Cl)c2N1)CCNCC3 [Example 1, 11-chloro-1,3,4,6,7,8,9,10-octahydro-2H-azepino[4,5-g]quinolin-2-one] | 165 to 167 °C
O=C(O)CCC(=O)O.c1ccc(OCCN2CCOc3cc4c(cc32)CCNCC4)cc1 | 132 to 134 °C
COc1ccc(CN2C(=O)COc3cc4c(cc32)CCNCC4)cc1.O=C(O)CCC(=O)O | 173 to 176 °C
CCOC(=O)N1CCOc2c1cc1c(c2Cl)CCNCC1.O=C(O)CCC(=O)O | 145 to 147 °C

Structure (SMILES) | melting point
CCNC(=O)N1CCCc2cc3c(c(C)c21)CCNCC3.O=C(O)C(=O)O | 170 to 171 °C
CC1(C)CCc2cc3c(cc2N1)CCNCC3 | 270 to 273 °C
CCOCc1cc(F)c(OCCN2CCOc3cc4c(c(C5CC5)c32)CCNCC4)c(F)c1.O=C(O)/C=C/C(=O)O | 138 to 139 °C
CCOC(=O)N1CCCc2cc3c(c(Br)c21)CCNCC3.O=C(O)C(=O)O | 187 to 189 °C
CCCN1C(=O)CCc2cc3c(c(-c4ccccc4)c21)CCNCC3.O=C(O)CCC(=O)O | 196 to 200 °C
Cl.FC(F)(F)CN1CCOc2c1cc1c(c2Br)CCNCC1 | 216 to 221 °C
Fc1cccc(CN2CCOc3cc4c(c(C5CC5)c32)CCNCC4)c1.O=C(O)CCC(=O)O | 102 to 105 °C
CCNC(=O)N1CCCc2cc3c(cc21)CCNCC3.O=C(O)/C=C/C(=O)O | 174 to 176 °C
O=C(O)/C=C/C(=O)O.c1nc(CN2CCOc3cc4c(cc32)CCNCC4)cs1 | 134 to 138 °C
COCCN1CCC(C)(C)c2cc3c(cc21)CCNCC3.O=C(O)/C=C/C(=O)O | 172 to 175 °C
O=C(O)CCC(=O)O.O=C(OCCc1ccccc1)N1CCOc2cc3c(cc21)CCNCC3 | 185 to 187 °C
O=C(O)CCC(=O)O.O=C(OCCc1ccccc1F)N1CCOc2cc3c(cc21)CCNCC3 | 186 to 187 °C
CCCN1C(=O)CCc2cc3c(cc21)CCNCC3.Cl | 125 to 129 °C
COCC(C)(C)CN1CCOc2cc3c(c(C4CC4)c21)CCNCC3 [Example 231] | 141 to 145 °C
Clc1cccc(-c2c3c(cc4c2NCCC4)CCNCC3)c1.O=C(O)/C=C/C(=O)O | 159 to 162 °C
Fc1cccc(CN2CCOc3cc4c(c(C5CC5)c32)CCNCC4)c1F.O=C(O)/C=C/C(=O)O | 157 to 159 °C
O=C(O)CCC(=O)O.O=C(OCCc1ccccc1)N1CCOc2c1cc1c(c2C2CC2)CCNCC1 | 142 to 144 °C
COCCCN1CCOc2cc3c(c(C)c21)CCNCC3.O=C(O)/C=C/C(=O)O | 160 to 163 °C
COc1ccc(F)cc1CN1CCOc2cc3c(c(C4CC4)c21)CCNCC3.O=C(O)/C=C/C(=O)O | 189 to 192 °C
COc1cccc(CN2C(=O)COc3cc4c(cc32)CCNCC4)c1.O=C(O)CCC(=O)O | 188 to 189 °C
O=C(O)/C=C/C(=O)O.c1cc(CN2CCOc3cc4c(c(C5CC5)c32)CCNCC4)c2c(c1)OCCO2 | 184 to 187 °C
